Test results taken from the supplement of paper PMC10307832.

What was measured:
Assay in all cases: relative viability (nuclei count vs DMSO), 5 days (fraction); higher = more cells survive
Gemcitabine + Vorinostat = compound: Nc1ccn([C@@H]2O[C@H](CO)[C@@H](O)C2(F)F)c(=O)n1 [Gemcitabine] + O=C(CCCCCCC(=O)Nc1ccccc1)NO [Vorinostat] (partner 1 µM)
Method in brief: (§1)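 A single step with final 0.05% Triton X-100, 1% formaldehyde and 1 ug/ml Hoechst fixed the cells and stained nuclei 5 days after treatment. Lung cancer cell lines in 1536-well plates had been treated by pin tool the day after seeding with one drug alone or a fixed anchor-drug dose plus five library-drug doses (not always all listed) in √10 steps, and nuclei were counted on 4× images. Relative viability is the ratio of nuclei in treated wells to nuclei in vehicle wells, taken as the median of duplicate plates.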

Gemcitabine + Dasatinib = compound: Nc1ccn([C@@H]2O[C@H](CO)[C@@H](O)C2(F)F)c(=O)n1 [Gemcitabine] + Cc1nc(Nc2ncc(C(=O)Nc3c(C)cccc3Cl)s2)cc(N2CCN(CCO)CC2)n1 [Dasatinib] (partner 0.075 µM)
Method in brief: as §1

Gemcitabine + Pictilisib = compound: Nc1ccn([C@@H]2O[C@H](CO)[C@@H](O)C2(F)F)c(=O)n1 [Gemcitabine] + CS(=O)(=O)N1CCN(Cc2cc3nc(-c4cccc5[nH]ncc45)nc(N4CCOCC4)c3s2)CC1 [Pictilisib] (partner 1 µM)
Method in brief: as §1

Gemcitabine + Crizotinib = compound: Nc1ccn([C@@H]2O[C@H](CO)[C@@H](O)C2(F)F)c(=O)n1 [Gemcitabine] + C[C@@H](Oc1cc(-c2cnn(C3CCNCC3)c2)cnc1N)c1c(Cl)ccc(F)c1Cl [Crizotinib] (partner 1 µM)
Method in brief: as §1

| Cell Line | relative viability (Gemcitabine + Vorinostat; first compound 0.001 µM) | relative viability (Gemcitabine + Vorinostat; first compound 0.003162 µM) | relative viability (Gemcitabine + Vorinostat; first compound 0.01 µM) | relative viability (Gemcitabine + Vorinostat; first compound 0.03162 µM) | relative viability (Gemcitabine + Vorinostat; first compound 0.1 µM) | relative viability (Gemcitabine + Dasatinib; first compound 0.001 µM) | relative viability (Gemcitabine + Dasatinib; first compound 0.003162 µM) | relative viability (Gemcitabine + Dasatinib; first compound 0.01 µM) | relative viability (Gemcitabine + Dasatinib; first compound 0.03162 µM) | relative viability (Gemcitabine + Dasatinib; first compound 0.1 µM) | relative viability (Gemcitabine + Pictilisib; first compound 0.001 µM) | relative viability (Gemcitabine + Pictilisib; first compound 0.003162 µM) | relative viability (Gemcitabine + Pictilisib; first compound 0.01 µM) | relative viability (Gemcitabine + Pictilisib; first compound 0.03162 µM) | relative viability (Gemcitabine + Pictilisib; first compound 0.1 µM) | relative viability (Gemcitabine + Crizotinib; first compound 0.001 µM) | relative viability (Gemcitabine + Crizotinib; first compound 0.003162 µM) | relative viability (Gemcitabine + Crizotinib; first compound 0.01 µM) | relative viability (Gemcitabine + Crizotinib; first compound 0.03162 µM) | relative viability (Gemcitabine + Crizotinib; first compound 0.1 µM) |
| --- | --- | --- | --- | --- | --- | --- | --- | --- | --- | --- | --- | --- | --- | --- | --- | --- | --- | --- | --- | --- |
| NCI-H650 | 0.38 | 0.25 | 0.15 | 0.121 | 0.111 | 0.428 | 0.329 | 0.228 | 0.149 | 0.157 | 0.918 | 0.502 | 0.246 | 0.166 | 0.166 | 0.578 | 0.322 | 0.176 | 0.177 | 0.167 |
| NCI-H661 | 0.766 | 0.725 | 0.598 | 0.303 | 0.234 | 1.07 | 0.814 | 0.428 | 0.176 | 0.18 | 0.352 | 0.388 | 0.288 | 0.224 | 0.242 | 1.09 | 0.983 | 0.856 | 0.333 | 0.285 |
| NCI-H727 | 1.29 | 0.716 | 0.456 | 0.513 | 0.428 | 0.303 | 0.33 | 0.295 | 0.264 | 0.345 | 0.552 | 0.459 | 0.304 | 0.216 | 0.211 | 0.771 | 0.32 | 0.243 | 0.266 | 0.219 |
| NCI-H838 | 0.77 | 0.777 | 0.66 | 0.479 | 0.168 | 0.293 | 0.287 | 0.318 | 0.261 | 0.136 | 0.476 | 0.501 | 0.468 | 0.346 | 0.141 | 0.912 | 0.981 | 0.858 | 0.324 | 0.139 |
| NCI-H1355 | 0.632 | 0.473 | 0.274 | 0.166 | 0.146 | 0.813 | 0.695 | 0.226 | 0.196 | 0.143 | 0.409 | 0.343 | 0.202 | 0.127 | 0.124 | 0.996 | 0.706 | 0.193 | 0.158 | 0.141 |
| NCI-H1437 | 0.749 | 0.792 | 0.645 | 0.398 | 0.232 | 0.392 | 0.274 | 0.285 | 0.139 | 0.107 | 0.409 | 0.457 | 0.258 | 0.118 | 0.0772 | 1.07 | 0.863 | 0.617 | 0.162 | 0.121 |
| NCI-H1650 | 0.55 | 0.33 | 0.34 | 0.21 | 0.127 | 0.297 | 0.241 | 0.141 | 0.088 | 0.115 | 0.524 | 0.466 | 0.267 | 0.181 | 0.144 | 0.974 | 0.875 | 0.638 | 0.158 | 0.145 |
| NCI-H1651 | 0.555 | 0.537 | 0.548 | 0.301 | 0.115 | 0.412 | 0.495 | 0.257 | 0.0946 | 0.0687 | 0.501 | 0.54 | 0.409 | 0.136 | 0.0858 | 0.913 | 0.855 | 0.85 | 0.346 | 0.138 |
